These results are taken from US20250066423A1, “SESTRIN-MAPK COMPLEX INHIBITORS” (Sentcell Ltd, priority 2021, published 2025).

The test system of one data set is H1N1 PR8/54. Format: in vivo, mice.
A further data set has as its system sestrin mRNA. As to the kind of experiment: Sestrin mRNA expression in spleens of DOS treated old mice (qPCR). Format: in vivo. Particulars: single dose, from day ten. On the procedure: FIG. 13 illustrates the level of Sestrin in DOS-treated murine blood and tissues. (A-B) Old mice were inoculated subcutaneously with DOS46L compound (0.1 mg/kg or 1 mg/kg). Blood was withdrawn at 0, 48, 72 hours and 8 weeks after the inoculation. Pharmacodynamics of Sestrin 2 were analysed by FACS in CD4+ T cell population. […] Untreated age-matched controls are shown. (D) 72 hr after DOS treatment, mice were sacrificed and old tissues were collected to analyse Sestrin levels in different organs by immunoblotting. **p<0.01, *p<0.05.
• 1. Transduced cells were collected • 2. Cell suspension was centrifugated and the cell pellet resuspended in warm PBS with 5 μM of CTV • 3. Followed an incubation of 10 min at 37° C. • 4. Cold PBS was added and cells were centrifugated • 5. Cells were then resuspended in medium and counted • 6. An aliquot of these cells were checked by FACS • 7. Cells were then stimulated with DOS in 200 μL and left for 12 days in culture RNA Extraction, Retro-Transcription and qPCR • 1. CD4+ cells were purified from mouse spleen using appropriate microbeads (Miltenyi) • 2. Total RNA from CD4+ cells was extracted using the “PureLink RNA Mini Kit” (Invitrogen). • 3. RNA concentration was acquired by NANO-DROP spectrophotometer (Thermo-Scientific). • 4. […]

Data set [1] deals with CD95+ CD62L+ CD44− CD4+ memory T cells. It is filed as in vivo, mice. The note with it: examined up to 8 weeks.
Data set [2] concerns telomere extension in T cells exposed to APCs. As to the kind of experiment: Telomere length quantification assay (qPCR). Format: cell-based, human. Particulars: 5 donors. An excerpt:
FIG. 23 illustrates live transfer of telomeres from APC to T cells in the presence of DOS. (A, left): T cells showing baseline fluorescence in the channel of Tel C; (A, middle): T cells treated with DOS cultured with APC; (A, right): T cells co-cultured with APC, in the absence of DOS. DOS enhances telomere transfer by ˜2 fold. Representative of 3 experiments. (B): Telomere extension was quantified by qPCR. Synapse-driven telomere extension (Akb) in T cells exposed to APCs and treated with or without DOS46L. Results from 5 donors are shown. […] Mann-Whitney was used. *p<0.05.
• 1. CD4− and CD4+ cells were purified from PBMC using appropriate microbead kit (Miltenyi) • 2. CD4+ cells were then used to purify CD27− and CD28− cells by using Miltenyi purification kits. • 3. A pellet of CD4− and CD4+/CD27−/CD28− cells were frozen. • 4. 4*10^6 CD4− were mixed with 1*10^6 CD4+/CD27−/CD28− cells in presence or not of DOS 46L 10 μM. • 14. The mixed cells were stimulated o.n. with a mix 1:1 of CMV and EBV • 15. The day after, CD4− cells were detached from conjugates with CD4+/CD27−/CD28− cells with a syringe by using cold PBS • 5. CD4− were then purified from CD4+ cells by using Miltenyi purification kits. • 16. CD4− and CD4+ cell pellets post conjugate were then frozen. • 17.

The test system of another data set is H1N1. Briefly: Autoptic lung analysis and viral clearance (qPCR of viral protein PA) in lungs of old mice. The note with it: mouse, in vivo.
In data set [3] the test system is influenza specific antibody titres. It is filed as in vivo. Particulars: old mice, single dose along with the vaccine, 2, 4 and 8 weeks after vaccination, versus young mice.
Data set [4] has as its system T cells (senescent CD3+ CD4+ CD27− CD28− population). The note with it: DOS-FITC 10 μM, 4 hrs.
Procedure: (A-B) CD4+ T cells were isolated from peripheral blood mononuclear cells (PBMCs) from healthy donors and treated with DOS compounds. (A) Representative confocal images of CD4+ T cells stained with DOS-FITC and CD3-AF594. (B) Quantification of DOS46L penetration by flow cytometry in CD4+ CD27-CD28-cells (Tsen) and in CD4+CD27+CD28+ (Terl).
Purified T cells were plated at the concentration 1*10^6 cell/well in 24 well plate • 2. Cells were treated with 10 μM of DOS-FITC for 4 hrs • 3. Then collected and centrifuged at 500 g for 5 mins • 4. Washed two times with ice-cold PBS • 5. Cells were resuspended in 200 ul of PBS and plated in a pre-treated coverslip with poly-lysine • 6. Cells were fixed with 4% of formaldehyde in ice for 20 mins • 7. Washed three times with PBS • 8. Blocked with PBS-BSA 5% • 9. Cells were then incubated with primary antibody (anti-CD3 1:100) overnight at 4 C • 10. Washed three times with PBS • 11. Then incubated with secondary antibody (anti-mouse conjugated with AF-594; 1:250) for 1 hr at room temperature • 12. Washed three times with PBS 13. Cells were permeabilized with Triton 0.25% in PBS for 2 mins • 14. Followed incubation with antibody anti-KDEL (Abcam) and anti-sestrin 2 (Gentex) diluted 1:100 at 4 C over-night • 15. Washed for three times with PBS • 16. […]
In a further data set the target is T1, recombinant sestrin 3 (Homo sapiens, UniProt P58005).
T1 sequence (P58005 1-492): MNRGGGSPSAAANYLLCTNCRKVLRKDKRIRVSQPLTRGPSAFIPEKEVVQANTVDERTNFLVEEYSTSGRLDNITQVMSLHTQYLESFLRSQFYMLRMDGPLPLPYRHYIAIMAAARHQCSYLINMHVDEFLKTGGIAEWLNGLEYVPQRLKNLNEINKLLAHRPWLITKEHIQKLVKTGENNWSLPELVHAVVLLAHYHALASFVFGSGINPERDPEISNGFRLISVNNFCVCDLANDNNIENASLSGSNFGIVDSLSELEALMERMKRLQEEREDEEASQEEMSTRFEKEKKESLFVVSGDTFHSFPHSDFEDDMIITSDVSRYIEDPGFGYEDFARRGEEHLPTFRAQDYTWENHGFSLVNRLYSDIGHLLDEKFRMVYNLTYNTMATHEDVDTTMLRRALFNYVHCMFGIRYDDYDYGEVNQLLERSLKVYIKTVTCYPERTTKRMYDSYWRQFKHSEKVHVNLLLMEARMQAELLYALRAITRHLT
Briefly: Streptavidin pull-down of biotinylated DOS46L with flag recombinant sestrins. Format: binding. Particulars: in vitro. On the procedure: However, it should be considered that direct binding is not a pre-requisite for DOS sestrin inhibitory function.
(A) Biotinylated DOS46L was mixed with flag recombinant Sestrins, immunoprecipitated with streptavidin and immunoblotted with flag Sestrins. […] Representative images from three experiments are shown. […] (D) DOS46L binds to the entire sMAC complex in CD4 T cells. CD4+ T cells were isolated from PBMCs from healthy donors and treated with biotinylated DOS46L compound (10 uM) for 4 hours. Cells were harvested for immunoprecipitation analysis.

Peptide text beside a SMILES is read from it.

For `CC[C@H](C)[C@@H]1NC(=O)[C@H](Cc2ccccc2)NC(=O)[C@H](C)NC(=O)[C@H](C(C)C)NC(=O)[C@@H]2CCCN2C1=O` [DOS46L] (cyclo(AFIPV)), the “relative effectiveness at low dose” value with H1N1 PR8/54 (0.1. mg/Kg) is “more effective at a very low dose”. The “survival data, comparison of compounds” value with H1N1 PR8/54 (old mice, vaccination with DOS, H1N1 PR8/54) is “similar”. In addition, in the data set with sestrin mRNA, the “sestrin mRNA expression” value is “Long term mRNA silencing of sestrin expression”. The “stem-like memory T cell generation” value in data set [1] is given as “permanent stem-like generation”. In data set [2], the synapse-driven telomere extension entry is recorded as “restoration in telomere length is similar to the extension observed in young T cells”. The lung necrosis result with H1N1 was “protection from lung necrosis”. Also, the “influenza specific antibody titres” value in data set [3] is “completely restored”. In addition, in data set [4], the cell penetration result was “able to penetrate T cells”. Also, the “direct binding to recombinant sestrin 3” value on recombinant sestrin 3 is “does not directly bind”.
